Read-outs that look alike come from different tables or passages of the source.
Legend:
[1] = Stability assay in rabbit aqueous humor; type: in vitro ADME; settings: 1 μM in rabbit aqueous humor, LC-MS/MS; read-out: t½ rabbits AH
Description: i) C.2.3. Stability Assay in Rabbit Aqueous Humor
Compounds are incubated at a concentration of 1 μM in rabbit aqueous humor (AH). Samples are taken at fixed time points and the remnant of compound is determined by LC-MS/MS after protein precipitation.

LPS-stimulated PBMC = test: Cellular assay using LPS-stimulated PBMC, TNF release (ELISA), in the absence and presence of plasma; type: cell-based
From the text: C.1.2. Activity Against ROCK in a Cellular Assay Using LPS-Stimulated PBMC in the Absence and Presence of Plasma
To ensure the stimulation of PBMC by LPS, the medium is enriched with LPS-binding protein (LBP) that will facilitate the delivery of LPS to the CD14 receptor and enhance the LPS-induced immune response. Cytokines secreted by activated PBMC include TNF, which is detected by means of a colorimetric ELISA. In the presence of an active compound, the release of TNF is inhibited in a concentration-dependent manner. Subsequently a control assay using the same set up in the presence of plasma is included.

ROCK II = molecular target: T1, ROCK II (Homo sapiens, UniProt O75116); test: ROCK II kinase inhibition, Method 1 Proqinase setup (33P radioisotopic protein kinase assay); type: biochemical; settings: 33P radioisotopic assay, 1 μM ATP, read-out: IC50 Meth. 1
T1 construct: purchased Proqinase
How it was run: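 33P radiometric assay with recombinant kinase (0.5 nM) and S6 peptide substrate in 60 mM HEPES-NaOH pH 7.5, Mg2+/Mn2+, 1 μM ATP, 1% DMSO; 80 min at 30 °C. Stopped with H3PO4, washed, counted; IC50 determined.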

[2] = Stability assay in rat plasma; type: in vitro ADME; settings: 1 μM in rat plasma, LC-MS/MS; read-out: t½ rat plasma
Description: (§1) C.2.1. Stability Assay in Human and/or Rat Plasma
(§2) Compounds are incubated at a concentration of 1 μM in rat (mice or rabbit) or human plasma. Samples are taken at fixed time points and the remnant of compound is determined by LC-MS/MS after protein precipitation. Half life is expressed in minutes.

[3] = Stability towards drug metabolizing enzymes in lung S9; type: in vitro ADME; settings: human, lung S9 from smokers with NADPH, UDPGA, PAPS and GSH, read-out: t½ human lung S9
Description: i) C.2.2. Stability Towards Drug Metabolizing Enzymes in Lung S9
A 1 μM solution of the ROCK inhibitors is incubated with a reaction mixture containing lung S9 (from smokers) as well as the cofactors NADPH, UDPGA, PAPS and GSH. Samples are collected at 0, 15, 30 and 60 minutes post incubation. Negative control samples incubated with ROCK inhibitors and S9 fraction in the absence of cofactors are run in parallel. By using LC-MS/MS analysis, the percent of ROCK compounds remaining at each time point, the metabolic half-life of the ROCK compounds (expressed in minutes) and the metabolic half-life of the control compounds are determined.

ROCKα/ROCKII = molecular target: T2, ROCKα/ROCKII (Homo sapiens, UniProt O75116); test: ROCK inhibition, Method 2 fluorescence polarization (FP) assay, ROCK IMAP Kit; type: biochemical; settings: 10 μM ATP, read-out: IC50 Meth. 2
T2 construct: purchased Upstate Biotechnology 14-451

[4] = Stability assay in human plasma; type: in vitro ADME; settings: 1 μM in human plasma, LC-MS/MS; read-out: t½ human plasma
Description: as §1, §2

Guinea pig trachea rings = test: Smooth muscle relaxing activity in organ baths of guinea pig trachea (carbachol); settings: Cavia porcellus; guinea pig trachea rings contracted with carbachol
Description: C.1.3. Smooth Muscle Relaxing Activity of Generated Soft ROCK Inhibitors In Vitro Using Organ Baths of Guinea Pig Trachea
Guinea pig trachea rings are prepared and incubated with a fixed concentration of the bronchoconstrictive agent carbachol. Then, increasing concentrations of the soft ROCK inhibitors are added and the contractive properties of the trachea measured for each of the compound concentrations. The study set-up allows the determination of an IC50, represented by the concentration of compound that induces a force equal to 50% of that observed for the vehicle-treated trachea.
In addition retention on the target is assessed using the above described organ baths of guinea pig trachea. In brief, upon induction of maximal relaxation with the ROCK inhibitors, trachea rings are thoroughly washed. Then, carbachol is added again and contractive properties are measured to determine whether the inhibitory activity of the ROCK inhibitors is prolonged upon the washout. A prolonged inhibitory activity after the washout is highly indicative for a prolonged retention of the compound at the lungs in vivo.

T1 sequence (O75116 whole entry): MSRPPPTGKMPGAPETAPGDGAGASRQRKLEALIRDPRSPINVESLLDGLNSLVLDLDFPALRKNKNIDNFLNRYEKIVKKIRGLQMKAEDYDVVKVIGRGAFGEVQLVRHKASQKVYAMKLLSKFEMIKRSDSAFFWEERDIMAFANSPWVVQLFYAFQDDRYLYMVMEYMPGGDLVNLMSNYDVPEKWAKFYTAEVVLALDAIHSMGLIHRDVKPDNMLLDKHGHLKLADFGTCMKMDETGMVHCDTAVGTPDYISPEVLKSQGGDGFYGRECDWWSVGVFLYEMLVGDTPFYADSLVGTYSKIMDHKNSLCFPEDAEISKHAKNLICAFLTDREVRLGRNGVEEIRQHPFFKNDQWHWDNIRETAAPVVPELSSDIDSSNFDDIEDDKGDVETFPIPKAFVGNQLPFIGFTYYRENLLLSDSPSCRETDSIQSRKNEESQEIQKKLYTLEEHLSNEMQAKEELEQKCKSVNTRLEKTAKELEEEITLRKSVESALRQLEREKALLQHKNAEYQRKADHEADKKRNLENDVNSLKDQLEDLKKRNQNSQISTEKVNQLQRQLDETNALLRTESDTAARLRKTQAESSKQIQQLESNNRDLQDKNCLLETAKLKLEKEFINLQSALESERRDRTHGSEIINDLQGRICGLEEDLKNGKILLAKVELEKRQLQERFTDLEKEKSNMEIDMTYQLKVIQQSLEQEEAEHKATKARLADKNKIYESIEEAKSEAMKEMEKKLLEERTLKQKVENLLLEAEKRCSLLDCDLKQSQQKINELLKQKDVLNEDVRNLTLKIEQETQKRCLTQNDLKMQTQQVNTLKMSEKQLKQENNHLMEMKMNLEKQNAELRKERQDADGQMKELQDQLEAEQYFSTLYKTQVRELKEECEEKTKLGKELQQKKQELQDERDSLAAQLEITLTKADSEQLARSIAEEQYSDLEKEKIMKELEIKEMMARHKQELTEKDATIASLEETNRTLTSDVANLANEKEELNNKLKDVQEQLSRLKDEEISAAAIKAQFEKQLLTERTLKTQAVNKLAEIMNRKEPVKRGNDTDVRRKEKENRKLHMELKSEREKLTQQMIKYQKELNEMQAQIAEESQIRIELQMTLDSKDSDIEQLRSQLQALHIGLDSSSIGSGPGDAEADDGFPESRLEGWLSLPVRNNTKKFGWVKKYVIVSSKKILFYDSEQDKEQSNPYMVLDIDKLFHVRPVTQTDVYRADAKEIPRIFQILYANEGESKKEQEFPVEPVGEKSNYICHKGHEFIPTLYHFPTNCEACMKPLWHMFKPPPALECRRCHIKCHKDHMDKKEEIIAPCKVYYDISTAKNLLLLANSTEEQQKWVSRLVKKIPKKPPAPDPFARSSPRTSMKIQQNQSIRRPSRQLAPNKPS
T2 sequence (O75116 whole entry): as above

CC(N)c1ccc(C(=O)Nc2ccncc2F)cc1-c1cccc(C(=O)OCC2CCCO2)c1 (stereo not shown) [Compound 46, 2′-(1-Amino-ethyl)-5′-(3-fluoro-pyridin-4-ylcarbamoyl)-biphenyl-3-carboxylic acid tetrahydro-furan-2-ylmethyl ester]
half-life at 1 μM [1]: > 60 min
IC50 (LPS-stimulated PBMC; in the presence of plasma, read-out: IC50 in the presence of plasma): > 10000 nM
IC50 (LPS-stimulated PBMC; without plasma, read-out: IC50 (assay without plasma)): 120 nM
IC50 (ROCK II): 100 to 1000 nM
half-life at 1 μM [2]: 5.8 min
half-life at 1 μM [3]: 53 min
IC50 (ROCKα/ROCKII): < 100 nM
half-life at 1 μM [4]: 1.9 min
IC50 (Guinea pig trachea rings): 500 nM

CC(N)c1ccc(C(=O)Nc2ccncc2F)cc1-c1cccc(C(=O)OCC2CCCCO2)c1 (stereo not shown) [Compound 47, 2′-(1-Amino-ethyl)-5′-(3-fluoro-pyridin-4-ylcarbamoyl)-biphenyl-3-carboxylic acid tetrahydro-pyran-2-ylmethyl ester]
IC50 (ROCK II): 100 to 1000 nM
half-life at 1 μM [2]: 4.5 min
half-life at 1 μM [3]: > 60 min
IC50 (ROCKα/ROCKII): < 100 nM
half-life at 1 μM [4]: 9.8 min

CCCOC(=O)c1cc(-c2cc(C(=O)Nc3ccncc3)ccc2C(C)N)c[nH]1 (stereo not shown) [Compound 169, 4-[2-(1-Amino-ethyl)-5-(pyridin-4-ylcarbamoyl)-phenyl]-1H-pyrrole-2-carboxylic acid propyl ester]
half-life at 1 μM [1]: > 60 min
IC50 (ROCK II): < 100 nM

Source: patent US8912209B2, “Rock inhibitors” (Amakem NV, priority 2010, dated 2014)
